Earlier results in patent publication KR20170036668A, “피부 발진의 예방 또는 치료용 약학 조성물” (주식회사 대웅제약, priority 2014, dated 2017).

Key:
피부 발진 = conditions: prophylactic treatment; Jatoi A et al., Cancer 113:847-853

| Proportion of patients with grade 3-4 ERSE (NSCLC and PC clinical trials) | Time to onset of rash after start of treatment (rash above the waist) | SMILES | Improvement of skin rash versus placebo (피부 발진) | Incidence of erlotinib related skin effect (ERSE) (NSCLC and PC clinical trials) |
| --- | --- | --- | --- | --- |
| – | – | CN(C)[C@@H]1C(O)=C(C(N)=O)C(=O)[C@@]2(O)C(O)=C3C(=O)c4c(O)cccc4[C@@](C)(O)[C@H]3C[C@@H]12 [테트라사이클린] | 30% | – |
| ~10% | 7-10 일 | C#Cc1cccc(Nc2ncnc3cc(OCCOC)c(OCCOC)cc23)c1 [엘로티닙] | – | 75% |
